From patent US7759345B2, “Antitumoral derivatives of ET-743” (priority 2001, dated 2010)

How the values were obtained:
[1] = test system: SW620; assay: Inhibition of cells growth by colorimetric assay (SRB), SW620; assay type: cell-based
Experimental: (§1) 2°.—Inhibition of Cells Growth by Colorimetric Assay.
(§2) A colorimetric type of assay, using sulforhodamine B (SRB) reaction has been adapted for a quantitative measurement of cell growth and viability [following the technique described by Philip Skehan, et al. (1990), New colorimetric cytotoxicity assay for anticancer drug screening, J. Natl. Cancer Inst., 82:1107-1112]
(§3) This form of the assay employs 96 well cell culture microplates of 9 mm diameter (Faircloth, 1988; Mosmann, 1983). Most of the cell lines are obtained from American Type Culture Collection (ATCC) derived from different human cancer types.
(§4) Cells are maintained in RPMI 1640 10% FBS, supplemented with 0.1 g/l penicillin and 0.1 g/l streptomycin sulfate and then incubated at 37° C., 5% CO2 and 98% humidity. For the experiments, cells were harvested from subconfluent cultures using trypsin and resuspended in fresh medium before plating.
(§5) Cells are seeded in 96 well microtiter plates, at 5×10^3 cells per well in aliquots of 195 μl medium, and they are allowed to attach to the plate surface by growing in drug free medium for 18 hours. Afterward, samples are added in aliquots of 5 μl in a ranging from 10 to 10^−8 μg/ml, dissolved in DMSO/EtOH/PBS (0.5:0.5:99). After 48 hours exposure, the antitumor effect are measured by the SRB methodology: cells are fixed by adding 50 μl of cold 50% (wt/vol) trichloroacetic acid (TCA) and incubating for 60 minutes at 4° C. Plates are washed with deionized water and dried. One hundred μl of SRB solution (0.4% wt/vol in 1% acetic acid) is added to each microtiter well and incubated for 10 minutes at room temperature. Unbound SRB is removed by washing with 1% acetic acid. Plates are air dried and bound stain is solubilized with Tris buffer. Optical densities are read on a automated spectrophotometric plate reader at a single wavelength of 490 nm.
(§6) The values for mean+/−SD of data from triplicate wells are calculated. Some parameters for cellular responses can be calculated: GI=growth inhibition, TGI=total growth inhibition (cytostatic effect) and LC=cell killing (cytotoxic effect).
(§7) Obtained results may predict the usefulness of a certain drug as a potential cancer treatment. For this technique, compounds which show GI50 values smaller than 10 μg/ml are selected to continue with further studies. GI50's data allow to predict that not only could a drug be cystostatic, but also it could have a potential in terms of tumor reduction.

[2] = test system: SK-MEL-28; assay: Inhibition of cells growth by colorimetric assay (SRB), SK-MEL-28; assay type: cell-based
Summary of the method: (§8)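 Human cancer cells (5×10^3/well) attached 18 h in RPMI 1640 10% FBS, then exposed 48 h at 37°C to compounds from 10 to 10^−8 μg/ml in DMSO/EtOH/PBS. TCA-fixed, SRB-stained, OD read at 490 nm; GI, TGI and LC derived from triplicate wells.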

[3] = test system: Kidney
Excerpt: (§9) Toxicity was asssessed by the methods reported in Toxicology in Vitro, 15 (2001) 571-577, J. Luber Narod et al.: “Evaluation of the use of in vitro methodolodies as tools for screening new compounds for potential in vivo toxicity”.

[4] = test system: tumor cell culture; assay: Bioassays for antitumor screening, cell line not given; assay type: cell-based; details: cell line not stated
Excerpt: Bioassays for Antitumor Screening
The finality of these assays is to interrupt the growth of a “in vitro” tumor cell culture by means a continued exhibition of the cells to the sample to be testing.

[5] = test system: A-498; assay: Inhibition of cells growth by colorimetric assay (SRB), A-498; assay type: cell-based
Experimental: as §1, §2, §3, §4, §5, §6, §7

[6] = test system: MCF-7; assay: Inhibition of cells growth by colorimetric assay (SRB), MCF-7; assay type: cell-based
Experimental: as §1, §2, §3, §4, §5, §6, §7

[7] = test system: DU-145; assay: Inhibition of cells growth by colorimetric assay (SRB), DU-145; assay type: cell-based
Summary of the method: as §8

[8] = test system: Liver
Excerpt: as §9

[9] = test system: HT-29; assay: Inhibition of cells growth by colorimetric assay (SRB), HT-29; assay type: cell-based
Summary of the method: as §8

[10] = test system: A-549; assay: Inhibition of cells growth by colorimetric assay (SRB), A-549; assay type: cell-based
Summary of the method: as §8

[11] = test system: MDA-MB-231; assay: Inhibition of cells growth by colorimetric assay (SRB), MDA-MB-231; assay type: cell-based
Experimental: as §1, §2, §3, §4, §5, §6, §7

[12] = test system: Skeletal
Excerpt: as §9

[13] = test system: Myelo
Excerpt: as §9

[14] = test system: Heart
Excerpt: as §9

COc1cc2c(cc1OC(=O)OC(C)(C)C)CCN[C@]21CS[C@@H]2c3c(OC(=O)OC(C)(C)C)c(C)c4c(c3[C@H](COC1=O)N1C2[C@H]2c3c(cc(C)c(OC)c3OC(=O)OC(C)(C)C)C[C@@H]([C@@H]1O)N2C)OCO4 (stereo partly drawn) [Compound 174]
LC50 ([1]; Homo sapiens, SW-620, 48 h, read-out: SW-620 LC50): 686 nM | GI50 ([1]; Homo sapiens, SW-620, SRB assay, 48 hours exposure, read-out: SW-620 GI50): 0.98 nM | SW-620 TGI ([1]; SRB assay, 48 hours exposure): 6.86E-09 | GI50 ([2]; Homo sapiens, SK-MEL-28, 48 h, SRB assay, 48 hours exposure, read-out: MEL-28 GI50): 1.96 nM | CC50 ([2]; Homo sapiens, SK-MEL-28, 48 h, read-out: MEL-28 LC50, SRB assay, 48 hours exposure): 9.8 nM | MEL-28 TGI ([2]; SRB assay, 48 hours exposure): 4.90E-09 | Toxicity Data Kidney [3]: 1.24E-08 | antitumor activity (in words) [4]: very active (E-10) | LC50 ([5]; Homo sapiens, A498, 48 h, read-out: A-498 LC50): 9.8 nM | GI50 ([5]; Homo sapiens, A498, SRB assay, 48 hours exposure, read-out: A-498 GI50): 1.96 nM | A-498 TGI ([5]; SRB assay, 48 hours exposure): 3.92E-09 | GI50 ([6]; Homo sapiens, MCF7, 48 h, read-out: MCF GI50): 3.92 nM | CC50 ([6]; Homo sapiens, MCF7, 48 h, read-out: MCF LC50): 88.2 nM | MCF TGI ([6]; SRB assay, 48 hours exposure): 1.96E-08 | GI50 ([7]; Homo sapiens, DU-145, 48 h, SRB assay, 48 hours exposure, read-out: DU-145 GI50): 0.294 nM | CC50 ([7]; Homo sapiens, DU-145, 48 h, read-out: DU-145 LC50, SRB assay, 48 hours exposure): 3.92 nM | DU-145 TGI ([7]; SRB assay, 48 hours exposure): 9.80E-10 | Toxicity Data Liver [8]: 1.34E-08 | GI50 ([9]; Homo sapiens, HT-29, 48 h, SRB assay, 48 hours exposure, read-out: HT-29 GI50): 1.96 nM | LC50 (concentration for 50% cell killing) ([9]; Homo sapiens, HT-29, 48 h, read-out: HT-29 LC50, SRB assay, 48 hours exposure): 9.8 nM | HT-29 TGI ([9]; SRB assay, 48 hours exposure): 6.86E-09 | GI50 ([10]; Homo sapiens, A549, 48 h, SRB assay, 48 hours exposure, read-out: A-549 GI50): 0.98 nM | LC50 (concentration for 50% cell killing) ([10]; Homo sapiens, A549, 48 h, read-out: A-549 LC50, SRB assay, 48 hours exposure): 9.8 nM | A-549 TGI ([10]; SRB assay, 48 hours exposure): 2.94E-09 | CC50 ([11]; Homo sapiens, MDA-MB-231, 48 h, read-out: MB-231 LC50): 98 nM | GI50 ([11]; Homo sapiens, MDA-MB-231, SRB assay, 48 hours exposure, read-out: MB-231 GI50): 0.98 nM | MB-231 TGI ([11]; SRB assay, 48 hours exposure): 5.88E-09 | Toxicity Data Skeletal [12]: 9.80E-07 | Toxicity Data Myelo [13]: 7.27E-08 | Toxicity Data Heart [14]: 2.76E-08
